Results published in PMC9501810, “Bitter Peptides YFYPEL, [sequence], and [sequence], Released during Gastric Digestion of Casein, Stimulate Mechanisms of Gastric Acid Secretion via Bitter Taste Receptors TAS2R16 and TAS2R38” (Journal of Agricultural and Food Chemistry, 2022).

Columns and labels:
Assay type in all cases: cell-based, human
TAS2R39 = assay: RT-qPCR gene expression of TAS2R39 in HGT-1 cells; details: VAPFPEVF 17.5 µM, YFYPEL 0.03 µM, YQEPVLGPVRGPFPIIV 0.4 µM, normalized to PPIA and GAPDH and untreated cells, mean, n = 3–5
Description: (§1) For mRNA expression analysis, 800,000 cells were seeded in a T25 cell culture flask (25 cm^2) 1 day before the experiment. After incubation with 17.5 μM […], 0.03 μM YFYPEL, or 0.4 μM […] for 15, 30, 60, and 120 min, RNA was isolated using the peqGOLD RNA Kit (VWR Peqlab, USA) following the manufacturer’s protocol. Determination of RNA concentration (A260/A280 between 2.03 and 2.09) was performed on a NanoDrop One^c (Thermo Fisher Scientific Inc., USA). RNA integrity number (RIN 9.9–10.0, version 2.6, assay class Eukaryote Total RNA Nano) was analyzed using a 2100 Bioanalyzer (Agilent Technologies, USA). Removal of gDNA and synthesis of cDNA were performed using the iScript gDNA Clear cDNA Synthesis Kit (BioRad, Feldkirchen, Germany) following the manufacturer’s protocol. Real-time-qPCR (RT-qPCR) was performed with 50 ng cDNA amplified with SsoAdvanced Universal SYBR Green Supermix (Bio-Rad Laboratories, Inc., USA). The sequences of the forward and reverse primers of the 25 TAS2Rs were taken from Liszt et al.([13]) (Supporting Information Table-SI 3). Verified primers for the TAS1Rs (TAS1R1: qHsaCID0013443; TAS1R2: qHsaCID0016106; TAS1R3: qHsaCED0002321) and for MAPK1 (qHsaCEP0050000) were obtained from Bio-Rad Laboratories. PPIA[37] and GAPDH[38] were used as reference genes. The effects of the peptides on gene expression were analyzed in comparison to untreated control cells.

TAS2R38 = assay: Proton secretion assay in TAS2R38 knock-down vs mock-transfected HGT-1 cells; details: TAS2R38kd vs mock-transfected HGT-1 cells, VAPFPEVF 17.5 µM, YFYPEL 0.03 µM, YQEPVLGPVRGPFPIIV 0.4 µM, 10 min, mean ± SEM; for reduction of the peptide-induced stimulation of proton secretion in TAS2R38kd cells: 72 h after 1 nM siRNA; for change of peptide-induced proton secretion, TAS2R38kd (in Figure 5E–G): negative = reduction
Description: The measurement of proton secretion from HGT-1 cells represents a well-established model for the identification of bitter compounds. By affecting extraoral bitter taste receptors with bitter compounds, a modulatory effect on proton secretion can be measured. For this purpose, cells were washed with KRHB and incubated with 3 μM of the intracellular pH indicator 1,5 carboxy-seminaphto-rhodafluor acetoxymethyl ester (SNARF-1-AM) under standard conditions. After 30 min, the cells were washed again with KRHB and then incubated with casein (0.01–10 μM equimolar related to the relevant forms αS1- and β-casein), hydrolysate (0.01–10 μM), or the peptides (0.01–200 μM). […] All substances were dissolved and diluted in KRHB. 1 mM histamine was used as a positive control. Measurements were performed using FlexStation 3 (Molecular Devices, USA). The excitation wavelength was 488 nm, and the emission wavelengths were 580 and 640 nm. For calibration (pH range 7.0–8.0), the intracellular and extracellular pH was adjusted with 2 μM nigericin in potassium buffer (20 mM NaCl, 110 mM KCl, 1 mM CaCl2, 1 mM MgSO4, 18 mM D-glucose, and 20 mM HEPES). The intracellular proton index (IPX) was calculated as the log2 value of the 580/640 ratio and compared with cells without treatment. Negative values represent increased secretion of protons and therefore stimulation of mechanisms regulating gastric acid secretion in HGT-1 cells. In contrast, positive values represent an inhibition of secretion compared to the untreated control.
Expression of TAS2R16 and TAS2R38 was reduced by treatment of HGT-1 cells with siRNA. 100,000 cells per well were seeded 1 day before the experiment into a 24-well plate. All reagents and siRNA were purchased from Thermo Fisher Scientific, USA (cytotoxicity was excluded by MTT). Transfection was performed with Lipofectamine RNAiMAX in Opti-Medium according to the manufacturer’s protocol. 1–50 nM of different siRNA sequences (HSS121396 and HSS181763 for TAS2R16 and HSS108754 and HSS108756 for TAS2R38) and three different incubation times (24, 48, and 72 h) were tested. Mock control experiments were performed analogously with 1 or 10 nM Stealth RNAi siRNA negative control. To verify the functionality of the transfection process, verified 10 nM siRNA targeting MAPK1 (VHS40312) was used (positive control). The transfection rate was checked by qPCR as described in section 2.11. For the proton secretion assays, 20,000 cells per well were seeded 1 day before transfection into a black 96-well plate. After 72 h of transfection, proton secretion activities of TAS2R16 knock-down or TAS2R38 knock-down HGT-1 were compared with the mock transfected cells by means of ΔIPX.

TAS2R13 = assay: RT-qPCR gene expression of TAS2R13 in HGT-1 cells; details: VAPFPEVF 17.5 µM, YFYPEL 0.03 µM, YQEPVLGPVRGPFPIIV 0.4 µM, normalized to PPIA and GAPDH and untreated cells, mean, n = 3–5
Description: as §1

TAS2R14 = assay: RT-qPCR gene expression of TAS2R14 in HGT-1 cells; details: VAPFPEVF 17.5 µM, YFYPEL 0.03 µM, YQEPVLGPVRGPFPIIV 0.4 µM, normalized to PPIA and GAPDH and untreated cells, mean, n = 3–5
Description: as §1

TAS2R60 = assay: RT-qPCR gene expression of TAS2R60 in HGT-1 cells; details: incubation 15/30/60/120 min, VAPFPEVF 17.5 µM, YFYPEL 0.03 µM, YQEPVLGPVRGPFPIIV 0.4 µM, expression not detectable with or without treatment
Description: as §1

TAS2R19 = assay: RT-qPCR gene expression of TAS2R19 in HGT-1 cells; details: VAPFPEVF 17.5 µM, YFYPEL 0.03 µM, YQEPVLGPVRGPFPIIV 0.4 µM, normalized to PPIA and GAPDH and untreated cells, mean, n = 3–5
Description: as §1

TAS2R1 = assay: RT-qPCR gene expression of TAS2R1 in HGT-1 cells; details: VAPFPEVF 17.5 µM, YFYPEL 0.03 µM, YQEPVLGPVRGPFPIIV 0.4 µM, normalized to PPIA and GAPDH and untreated cells, mean, n = 3–5
Description: as §1

TAS2R30 = assay: RT-qPCR gene expression of TAS2R30 in HGT-1 cells; details: VAPFPEVF 17.5 µM, YFYPEL 0.03 µM, YQEPVLGPVRGPFPIIV 0.4 µM, normalized to PPIA and GAPDH and untreated cells, mean, n = 3–5
Description: as §1

TAS2R9 = assay: RT-qPCR gene expression of TAS2R9 in HGT-1 cells; details: VAPFPEVF 17.5 µM, YFYPEL 0.03 µM, YQEPVLGPVRGPFPIIV 0.4 µM, normalized to PPIA and GAPDH and untreated cells, mean, n = 3–5
Description: as §1

TAS2R45 = assay: RT-qPCR gene expression of TAS2R45 in HGT-1 cells; details: VAPFPEVF 17.5 µM, YFYPEL 0.03 µM, YQEPVLGPVRGPFPIIV 0.4 µM, normalized to PPIA and GAPDH and untreated cells, mean, n = 3–5
Description: as §1

Substance | change in gene expression of TAS2R39 (TAS2R39; incubation 15 min) [fold change] | change in gene expression of TAS2R39 (TAS2R39; incubation 30 min) [fold change] | change in gene expression of TAS2R39 (TAS2R39; incubation 60 min) [fold change] | change in gene expression of TAS2R39 (TAS2R39; incubation 120 min) [fold change] | reduction of the peptide-induced stimulation of proton secretion in TAS2R38kd cells (TAS2R38) [%] | change of peptide-induced proton secretion, TAS2R38kd (in Figure 5E–G) (TAS2R38) [%] | change in gene expression of TAS2R13 (TAS2R13; incubation 15 min) [fold change] | change in gene expression of TAS2R13 (TAS2R13; incubation 30 min) [fold change] | change in gene expression of TAS2R13 (TAS2R13; incubation 60 min) [fold change] | change in gene expression of TAS2R13 (TAS2R13; incubation 120 min) [fold change] | change in gene expression of TAS2R14 (TAS2R14; incubation 15 min) [fold change] | change in gene expression of TAS2R14 (TAS2R14; incubation 30 min) [fold change] | change in gene expression of TAS2R14 (TAS2R14; incubation 60 min) [fold change] | change in gene expression of TAS2R14 (TAS2R14; incubation 120 min) [fold change] | change in gene expression of TAS2R60 (TAS2R60) | change in gene expression of TAS2R19 (TAS2R19; incubation 15 min) [fold change] | change in gene expression of TAS2R19 (TAS2R19; incubation 30 min) [fold change] | change in gene expression of TAS2R19 (TAS2R19; incubation 60 min) [fold change] | change in gene expression of TAS2R19 (TAS2R19; incubation 120 min) [fold change] | change in gene expression of TAS2R1 (TAS2R1; incubation 15 min) [fold change] | other results
YQEPVLGPVRGPFPIIV [bitter casein peptide βA1/A2-CN193–209] | 0.53 | 1.16 | 0.73 | 0.53 | 45.2 ± 6.7 | -45.2 ±6.7 | 0.70 | 1.65 | 1.16 | 1.31 | 0.85 | 1.08 | 1.03 | 1.08 | not detected | 0.85 | 1.58 | 1.27 | 1.05 | 0.33 | change in gene expression of TAS2R1 (TAS2R1; incubation 30 min): 0.43 fold change; change in gene expression of TAS2R1 (TAS2R1; incubation 60 min): 1.00 fold change; change in gene expression of TAS2R1 (TAS2R1; incubation 120 min): 0.84 fold change; change in gene expression of TAS2R30 (TAS2R30; incubation 15 min): 0.74 fold change; change in gene expression of TAS2R30 (TAS2R30; incubation 30 min): 1.88 fold change; change in gene expression of TAS2R30 (TAS2R30; incubation 60 min): 1.20 fold change; change in gene expression of TAS2R30 (TAS2R30; incubation 120 min): 0.89 fold change; change in gene expression of TAS2R9 (TAS2R9; incubation 15 min): 0.43 fold change; change in gene expression of TAS2R9 (TAS2R9; incubation 30 min): 0.44 fold change; change in gene expression of TAS2R9 (TAS2R9; incubation 60 min): 1.91 fold change; change in gene expression of TAS2R9 (TAS2R9; incubation 120 min): 0.73 fold change; change in gene expression of TAS2R45 (TAS2R45; incubation 15 min): 0.63 fold change; change in gene expression of TAS2R45 (TAS2R45; incubation 30 min): 1.25 fold change; change in gene expression of TAS2R45 (TAS2R45; incubation 60 min): 1.06 fold change; change in gene expression of TAS2R45 (TAS2R45; incubation 120 min): 0.84 fold change
YFYPEL [bitter casein peptide αS1-CN144–149] | 1.21 | 0.42 | 0.62 | 0.45 | 62.8 ± 7.0 | -62.8 ±7.0 | 1.14 | 0.53 | 0.78 | 0.88 | 1.11 | 0.92 | 0.99 | 1.21 | not detected | 1.60 | 0.82 | 0.79 | 1.05 | 0.36 | change in gene expression of TAS2R1 (TAS2R1; incubation 30 min): 1.03 fold change; change in gene expression of TAS2R1 (TAS2R1; incubation 60 min): 0.55 fold change; change in gene expression of TAS2R1 (TAS2R1; incubation 120 min): 0.73 fold change; change in gene expression of TAS2R30 (TAS2R30; incubation 15 min): 1.79 fold change; change in gene expression of TAS2R30 (TAS2R30; incubation 30 min): 0.62 fold change; change in gene expression of TAS2R30 (TAS2R30; incubation 60 min): 0.89 fold change; change in gene expression of TAS2R30 (TAS2R30; incubation 120 min): 1.15 fold change; change in gene expression of TAS2R9 (TAS2R9; incubation 15 min): 0.66 fold change; change in gene expression of TAS2R9 (TAS2R9; incubation 30 min): 2.64 fold change; change in gene expression of TAS2R9 (TAS2R9; incubation 60 min): 3.01 fold change; change in gene expression of TAS2R9 (TAS2R9; incubation 120 min): 1.41 fold change; change in gene expression of TAS2R45 (TAS2R45; incubation 15 min): 1.15 fold change; change in gene expression of TAS2R45 (TAS2R45; incubation 30 min): 0.54 fold change; change in gene expression of TAS2R45 (TAS2R45; incubation 60 min): 0.70 fold change; change in gene expression of TAS2R45 (TAS2R45; incubation 120 min): 0.94 fold change
VAPFPEVF [bitter casein peptide αS1-CN25–32] | 0.39 | 1.37 | 0.55 | 1.16 | 37.5 ± 9.8 | -37.5 ±9.8 | 0.44 | 1.28 | 1.01 | 1.92 | 0.67 | 0.97 | 0.86 | 1.08 | not detected | 0.66 | 1.22 | 0.69 | 1.25 | 0.79 | change in gene expression of TAS2R1 (TAS2R1; incubation 30 min): 1.36 fold change; change in gene expression of TAS2R1 (TAS2R1; incubation 60 min): 0.44 fold change; change in gene expression of TAS2R1 (TAS2R1; incubation 120 min): 1.62 fold change; change in gene expression of TAS2R30 (TAS2R30; incubation 15 min): 0.56 fold change; change in gene expression of TAS2R30 (TAS2R30; incubation 30 min): 1.53 fold change; change in gene expression of TAS2R30 (TAS2R30; incubation 60 min): 0.75 fold change; change in gene expression of TAS2R30 (TAS2R30; incubation 120 min): 1.62 fold change; change in gene expression of TAS2R9 (TAS2R9; incubation 15 min): 1.73 fold change; change in gene expression of TAS2R9 (TAS2R9; incubation 30 min): 1.08 fold change; change in gene expression of TAS2R9 (TAS2R9; incubation 60 min): 2.31 fold change; change in gene expression of TAS2R9 (TAS2R9; incubation 120 min): 0.99 fold change; change in gene expression of TAS2R45 (TAS2R45; incubation 15 min): 0.52 fold change; change in gene expression of TAS2R45 (TAS2R45; incubation 30 min): 1.08 fold change; change in gene expression of TAS2R45 (TAS2R45; incubation 60 min): 0.68 fold change; change in gene expression of TAS2R45 (TAS2R45; incubation 120 min): 1.17 fold change
